Results: paper PMC4008364, “Alleviation of behavioral hypersensitivity in mouse models of inflammatory pain with two structurally different casein kinase 1 (CK1) inhibitors” (Molecular Pain, 2014)
Where a chain is given by its changes, count along the chain named. Read-outs that look alike come from different tables or passages of the source.

Tests used:
[1] = tested on: CFA-induced inflammatory pain in mice; assay: CFA-induced persistent inflammatory pain behaviors, intrathecal injection; type: in vivo, mouse; settings: for withdrawal latency of the ipsilateral hind paw (thermal hyperalgesia), CFA / withdrawal threshold of the ipsilateral hind paw (mechanical allodynia), CFA: i.t., IC261 0.1-1 nmol, TG003 0.1-100 pmol, 3 days after CFA
Method: (§1) Male C57BL/6 J mice (5 weeks old) were purchased from Clea Japan, Inc. (Tokyo, Japan) and housed under controlled temperature (24 ± 1°C) and humidity (55 ± 10%) with a 12-hour light-dark cycle with food and water freely available. The animal experiments were approved by the Animal Care Committees of Tokyo Medical and Dental University (approval No. 0090173) and Kagoshima University (approval No. MD10053), and were conducted in accordance with the ethical guidelines for the study of experimental pain in conscious animals published by the International Association of the Study of Pain (1995) and the European Communities Council Directive of 24 November, 1986 (86/609/EEC).
(§2) To produce acute and persistent inflammatory pain, carrageenan (2% lambda carrageenan in saline, 25 μl, Sigma, St. Louis, MO) and complete Freund’s adjuvant (CFA, 25 μl, Sigma) were injected into the plantar surface of the right hindpaw under light halothane anesthesia, respectively. Control mice were treated with saline or incomplete Freund’s adjuvant (IFA, Sigma), respectively. Mechanical allodynia and thermal hyperalgesia were measured using the Dynamic Plantar Aesthesiometer (Ugo Basile, Comerio VA, Italy) and the Paw Thermal Stimulator (UCSD, San Diego, CA, USA), respectively as described. In CFA model, these behavioral experiments were conducted 3 days after the injection. Intrathecal (i.t.) injection was given in a volume of 5 μl by percutaneous puncture through an intervertebral space at the level of the 5th or 6th lumbar vertebra, according to a previously reported procedure. An investigator, who was unaware of the drug treatment, performed all of the behavioral experiments.

[2] = tested on: substantia gelatinosa neurons; assay: Whole-cell patch-clamp recording of sEPSCs in spinal cord slices; type: cell-based, mouse; settings: for frequency and amplitude of sEPSCs, control mice: 1 μM superfusion, slices from control mice, holding potential -70 mV; for mean frequency of sEPSCs in inflammatory pain model mice: 1 μM, carrageenan- and CFA-inflamed mice
Method: (§3) Adult mouse spinal cord slices were prepared according to the method of Yoshimura & Jessell. Briefly, 6 hours after carrageenan or saline injection, and 3 days after CFA or IFA injection, transverse slices (thickness, 800-900 μm) of the L5 spinal segments with the L5 dorsal root attached were cut on a vibrating blade microtome. The slices were superfused with Krebs solution (10-15 ml/min) saturated with 95% O2 and 5% CO2 at 36 ± 1°C. The composition of Krebs solution was as follows (in mM): NaCl 117; KCl 3.6; NaHCO3 25; NaH2PO4 1.2; CaCl2 2.5; MgCl2 1.2, and glucose 11 (pH 7.4 after gas saturation).
Blind whole-cell patch-clamp recordings were made from the lamina II (substantia gelatinosa: SG) neurons ipsilateral to carrageenan, CFA, or vehicle (saline or IFA) injection in voltage clamp mode. Patch pipettes were fabricated from thin-walled, borosilicate, glass-capillary tubing (1.5 mm o.d., World Precision Instruments). After establishing the whole-cell configuration, neurons were held at the potential of -70 mV to record spontaneous excitatory postsynaptic currents (sEPSCs) and at the potential of 0 mV to record spontaneous inhibitory postsynaptic currents (sIPSC). Under these conditions, GABA- and glycine-mediated IPSCs and glutamate-mediated EPSCs, respectively, were negligible, because these holding potential were close to the reversal potentials of IPSCs and EPSCs, respectively. Recording electrodes were filled with either potassium gluconate-based solution (in mM: K-gluconate 135; KCl 5; CaCl2 0.5; MgCl2 2; EGTA 5; HEPES 5; ATP-Mg 5; adjusted with KOH to pH 7.2) to investigate EPSCs, or Cs-based solution (in mM: Cs2SO4 110; tetraethylammonium 5; CaCl2 0.5; MgCl2 2; EGTA 5; HEPES 5; ATP-Mg 5; adjusted with CsOH to pH 7.2) to examine IPSCs. The resistance of a typical patch pipette is 5-10 MΩ. Membrane currents were amplified with an Axopatch 200B amplifier (Molecular Devices, Sunnyvale, CA, USA) in voltage-clamp mode. Signals were low-pass filtered at 5 kHz and digitized at 333 kHz with an A/D converter (Digidata 1322, Molecular Devices). Data were stored with a personal computer using pCLAMP10 software and analyzed with Mini Analysis software (Synaptosoft Inc., Decatur, GA, USA).
(§4) The average values of both frequency and amplitude of sEPSCs or sIPSCs during the control (1 min) and 5-10 min after the drug application (1 min period after the attainment of steady effect of each drug) were calculated and quantified as relative changes in frequency and amplitude.

[3] = tested on: carrageenan-induced inflammatory pain in mice; assay: Carrageenan-induced acute inflammatory pain behaviors, intrathecal injection; type: in vivo, mouse; settings: for withdrawal latency of the ipsilateral hind paw (thermal hyperalgesia), carrageenan / withdrawal threshold of the ipsilateral hind paw (mechanical allodynia), carrageenan: i.t., IC261 0.1-1 nmol, TG003 0.1-100 pmol
Method: as §1, §2

human CK1γ1 = biological target: T1, human CK1γ1 (Homo sapiens, UniProt Q9HCP0); assay: In vitro kinase assay (QuickScout mobility shift assay), CK1γ1; type: biochemical
T1 construct: Full-length human CK1α, CK1γ1, CK1γ2, CK1γ3; GST (N); purchased Carna Biosciences, Inc; host or cells: baculovirus system (insect cells)
Text: (§5) […]; Carna Biosciences, Inc., Kobe, Japan). Detailed information on the assay condition is available on the website of Carna Biosciences (http://www.carnabio.com). Full-length human CK1α, CK1γ1, CK1γ2, CK1γ3 and catalytic domain of human CK1ϵ were expressed as N-terminal GST-fusion protein using baculovirus system, and purified by using glutathione sepharose chromatography. Catalytic domain of CK1δ was expressed as N-terminal GST-fusion protein in E. coli, and purified by using glutathione sepharose chromatography.

human CK1γ3 = biological target: T2, human CK1γ3 (Homo sapiens, UniProt Q9Y6M4); assay: In vitro kinase assay (QuickScout mobility shift assay), CK1γ3; type: biochemical; settings: substrate peptide CKtide; ATP at Km 3.2 μM; average of duplicated experiments
T2 construct: Full-length human CK1α, CK1γ1, CK1γ2, CK1γ3; GST (N); purchased Carna Biosciences, Inc; host or cells: baculovirus system (insect cells)
Text: (§6) Detailed information on the assay condition is available on the website of Carna Biosciences (http://www.carnabio.com). Full-length human CK1α, CK1γ1, CK1γ2, CK1γ3 and catalytic domain of human CK1ϵ were expressed as N-terminal GST-fusion protein using baculovirus system, and purified by using glutathione sepharose chromatography. Catalytic domain of CK1δ was expressed as N-terminal GST-fusion protein in E. coli, and purified by using glutathione sepharose chromatography.

human CK1α = biological target: T3, human CK1α (Homo sapiens, UniProt P48729); assay: In vitro kinase assay (QuickScout mobility shift assay), CK1α; type: biochemical
T3 construct: Full-length human CK1α, CK1γ1, CK1γ2, CK1γ3; GST (N); purchased Carna Biosciences, Inc; host or cells: baculovirus system (insect cells)
Text: as §5

[4] = tested on: substantia gelatinosa neurons; assay: Whole-cell patch-clamp recording of sIPSCs in spinal cord slices; type: cell-based, mouse; settings: 1 μM, holding potential 0 mV
Method: as §3
Blind whole-cell patch-clamp recordings were made from the lamina II (substantia gelatinosa: SG) neurons ipsilateral to carrageenan, CFA, or vehicle (saline or IFA) injection in voltage clamp mode. Patch pipettes were fabricated from thin-walled, borosilicate, glass-capillary tubing (1.5 mm o.d., World Precision Instruments). […] Data were stored with a personal computer using pCLAMP10 software and analyzed with Mini Analysis software (Synaptosoft Inc., Decatur, GA, USA).
as §4

human CK1ϵ = biological target: T4, human CK1ϵ (Homo sapiens, UniProt P49674); assay: In vitro kinase assay (QuickScout mobility shift assay), CK1ϵ; type: biochemical; settings: substrate peptide CKtide; ATP at Km 16 μM; average of duplicated experiments
T4 construct: catalytic domain of human CK1ϵ were expressed as N-terminal GST-fusion protein; GST (N); purchased Carna Biosciences, Inc; host or cells: baculovirus system (insect cells)
T4 sequence (P49674 9-277 limits assumed): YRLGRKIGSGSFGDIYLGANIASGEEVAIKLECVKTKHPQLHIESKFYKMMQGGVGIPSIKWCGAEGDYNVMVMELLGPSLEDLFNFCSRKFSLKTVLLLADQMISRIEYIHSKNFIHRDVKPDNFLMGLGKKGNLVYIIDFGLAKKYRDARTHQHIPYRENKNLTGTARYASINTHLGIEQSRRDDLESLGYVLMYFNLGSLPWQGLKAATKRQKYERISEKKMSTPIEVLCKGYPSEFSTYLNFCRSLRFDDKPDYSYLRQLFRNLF
Text: as §6

CK1δ [5] = biological target: T5, CK1δ (Homo sapiens, UniProt P48730); assay: In vitro kinase assay (QuickScout mobility shift assay), CK1δ; type: biochemical
T5 construct: Catalytic domain of CK1δ was expressed as N-terminal GST-fusion protein in E. coli; GST (N); purchased Carna Biosciences, Inc; host or cells: E. coli
T5 sequence (P48730 9-277 limits assumed): T4 sequence (P49674 9-277 limits assumed) with A19T, N20D, S23A, F47I, S59T, K61R, S241A
Text: as §6

human CK1γ2 = biological target: T6, human CK1γ2 (Homo sapiens, UniProt P78368); assay: In vitro kinase assay (QuickScout mobility shift assay), CK1γ2; type: biochemical
T6 construct: Full-length human CK1α, CK1γ1, CK1γ2, CK1γ3; GST (N); purchased Carna Biosciences, Inc; host or cells: baculovirus system (insect cells)
Text: as §6

CK1ϵ = biological target: T7, CK1ϵ (Homo sapiens, UniProt P49674); assay: PER3 nuclear translocation assay, HEK293 cells expressing CK1ϵ; type: cell-based; settings: 1 hour pre-incubation, 8 hours doxycycline
T7 construct: F2A peptide (self-cleaving link to EGFP; its remnant stays on the CK1 C-terminus) (C); expressed in transfected cells; co-expressing mCherry-PER3

Clk1 = tested on: Clk1; set-up: method as in PMID 15010457; settings: range given for Clk1 and 4 isoforms together; read-out: IC50 against Clk1; cited from earlier work
CK1δ [6] = biological target: CK1δ (Homo sapiens, UniProt P48730); assay: PER3 nuclear translocation assay, HEK293 cells expressing CK1δ; settings: 30 μM, 1 hour pre-incubation, 8 hours doxycycline

T7 sequence (P49674 whole entry): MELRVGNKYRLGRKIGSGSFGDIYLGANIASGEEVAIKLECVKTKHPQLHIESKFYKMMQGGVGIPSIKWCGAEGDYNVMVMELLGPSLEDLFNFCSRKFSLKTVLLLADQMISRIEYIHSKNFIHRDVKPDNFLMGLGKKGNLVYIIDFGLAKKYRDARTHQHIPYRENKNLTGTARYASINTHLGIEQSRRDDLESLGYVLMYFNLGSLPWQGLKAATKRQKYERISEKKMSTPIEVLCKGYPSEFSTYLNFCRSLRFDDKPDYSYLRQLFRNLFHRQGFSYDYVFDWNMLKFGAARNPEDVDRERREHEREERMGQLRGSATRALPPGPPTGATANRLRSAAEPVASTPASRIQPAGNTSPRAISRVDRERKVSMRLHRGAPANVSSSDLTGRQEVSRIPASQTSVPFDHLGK
T3 sequence (P48729 whole entry): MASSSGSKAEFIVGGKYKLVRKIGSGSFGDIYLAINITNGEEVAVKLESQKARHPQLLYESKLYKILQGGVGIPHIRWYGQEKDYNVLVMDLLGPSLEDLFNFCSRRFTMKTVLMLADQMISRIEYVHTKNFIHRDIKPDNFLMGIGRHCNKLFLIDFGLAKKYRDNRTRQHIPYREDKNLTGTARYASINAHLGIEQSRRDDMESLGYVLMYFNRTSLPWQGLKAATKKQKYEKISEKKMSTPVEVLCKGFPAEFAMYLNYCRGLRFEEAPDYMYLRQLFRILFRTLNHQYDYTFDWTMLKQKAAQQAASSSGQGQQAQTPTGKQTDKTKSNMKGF
T1 sequence (Q9HCP0 whole entry): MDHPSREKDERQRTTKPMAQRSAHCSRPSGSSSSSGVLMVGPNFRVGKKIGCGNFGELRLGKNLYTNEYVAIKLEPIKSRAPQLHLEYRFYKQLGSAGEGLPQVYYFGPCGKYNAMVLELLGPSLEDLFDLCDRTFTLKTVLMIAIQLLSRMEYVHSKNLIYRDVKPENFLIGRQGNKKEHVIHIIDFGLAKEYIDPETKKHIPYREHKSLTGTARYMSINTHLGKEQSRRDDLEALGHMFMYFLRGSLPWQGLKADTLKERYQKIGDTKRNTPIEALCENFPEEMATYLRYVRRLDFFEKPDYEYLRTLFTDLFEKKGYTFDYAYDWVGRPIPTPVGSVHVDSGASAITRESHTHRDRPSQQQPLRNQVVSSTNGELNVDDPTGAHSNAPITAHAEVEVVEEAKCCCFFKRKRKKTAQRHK
T6 sequence (P78368 whole entry): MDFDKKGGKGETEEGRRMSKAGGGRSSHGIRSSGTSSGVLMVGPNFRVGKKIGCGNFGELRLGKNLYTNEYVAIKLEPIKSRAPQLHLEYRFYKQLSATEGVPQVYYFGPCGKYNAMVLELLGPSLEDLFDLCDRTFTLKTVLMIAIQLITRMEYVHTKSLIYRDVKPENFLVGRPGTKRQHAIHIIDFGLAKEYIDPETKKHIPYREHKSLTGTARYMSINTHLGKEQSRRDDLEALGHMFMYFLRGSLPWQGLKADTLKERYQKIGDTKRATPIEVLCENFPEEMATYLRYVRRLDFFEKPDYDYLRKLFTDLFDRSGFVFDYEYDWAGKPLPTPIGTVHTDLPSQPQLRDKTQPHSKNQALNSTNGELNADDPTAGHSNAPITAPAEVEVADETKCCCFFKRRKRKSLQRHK
T2 sequence (Q9Y6M4 whole entry): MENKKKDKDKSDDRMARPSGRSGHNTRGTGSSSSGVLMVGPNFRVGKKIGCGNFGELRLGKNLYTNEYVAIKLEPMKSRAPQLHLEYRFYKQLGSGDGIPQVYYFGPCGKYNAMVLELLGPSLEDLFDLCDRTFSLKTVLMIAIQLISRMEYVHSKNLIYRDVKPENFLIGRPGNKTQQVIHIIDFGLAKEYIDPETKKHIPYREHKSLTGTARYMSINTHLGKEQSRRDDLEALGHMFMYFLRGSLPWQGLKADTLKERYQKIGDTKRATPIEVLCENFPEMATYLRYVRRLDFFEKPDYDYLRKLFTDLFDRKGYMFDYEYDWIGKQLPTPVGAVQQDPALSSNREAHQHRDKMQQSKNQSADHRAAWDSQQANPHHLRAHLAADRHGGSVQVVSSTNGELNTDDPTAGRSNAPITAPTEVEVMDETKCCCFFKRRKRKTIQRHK

Compound: COc1cc(OC)c(C=C2C(O)=Nc3ccccc32)c(OC)c1 [IC261]
- withdrawal latency of the ipsilateral hind paw (thermal hyperalgesia), CFA [1]: dose-dependently increased
- withdrawal threshold of the ipsilateral hind paw (mechanical allodynia), CFA [1]: dose-dependently increased
- frequency and amplitude of sEPSCs, control mice [2]: altered neither the frequency nor the amplitude of sEPSCs
- mean frequency of sEPSCs in inflammatory pain model mice [2]: decreased
- withdrawal latency of the ipsilateral hind paw (thermal hyperalgesia), carrageenan [3]: dose-dependently increased
- withdrawal threshold of the ipsilateral hind paw (mechanical allodynia), carrageenan [3]: dose-dependently increased
- development of thermal hyperalgesia induced by carrageenan ([3]; spinal preemptive treatment, i.t. 30 min before carrageenan): dose-dependently attenuated
- IC50 (human CK1γ1): > 30000 nM
- IC50 (human CK1γ3): > 30 µM
- IC50 (human CK1α): 190 nM
- sIPSCs from the inflamed mice ([4]; carrageenan- and CFA-inflamed mice): did not affect sIPSCs
- mean amplitude of control sIPSCs ([4]; control mice): slight but significant reduction
- IC50 (human CK1ϵ): 860 nM
- IC50 (CK1δ [5]): 600 nM
- IC50 (human CK1γ2): > 30 µM

Compound: Nc1nccc(-c2c(-c3ccc(F)cc3)ncn2C2CCCCC2)n1 [PF-670462]
- CK1ϵ-induced nuclear translocation of mCherry-PER3 (CK1ϵ; 1 μM): also inhibited the nuclear translocation

Compound: CCN1/C(=C/C(C)=O)Sc2ccc(OC)cc21 [TG003]
- CFA-induced mechanical allodynia ([1]; 1 pmol i.t.): significantly reversed
- CFA-induced thermal hyperalgesia ([1]; 1 pmol i.t.): did not affect
- withdrawal latency of the ipsilateral hind paw (thermal hyperalgesia), CFA [1]: dose-dependently increased
- withdrawal threshold of the ipsilateral hind paw (mechanical allodynia), CFA [1]: dose-dependently increased
- frequency and amplitude of sEPSCs, control mice [2]: altered neither the frequency nor the amplitude of sEPSCs
- mean frequency of sEPSCs in inflammatory pain model mice [2]: decreased
- withdrawal latency of the ipsilateral hind paw (thermal hyperalgesia), carrageenan [3]: dose-dependently increased
- withdrawal threshold of the ipsilateral hind paw (mechanical allodynia), carrageenan [3]: dose-dependently increased
- IC50 (human CK1γ1; substrate peptide CKtide, ATP at Km 6.3 μM, average of duplicated experiments, read-out: IC50 on the kinase activity of CK1γ1): 1500 nM
- IC50 (human CK1α; substrate peptide CKtide, ATP at Km 4.1 μM, average of duplicated experiments, read-out: IC50 on the kinase activity of CK1α): 330 nM
- CK1δ-induced nuclear translocation of mCherry-PER3 (CK1δ [6]): inhibited the nuclear translocation of mCherry-PER3
- CK1ϵ-induced nuclear translocation of mCherry-PER3 (CK1ϵ; 30 μM): inhibited the nuclear translocation of mCherry-PER3
